Experimental data published in ChEMBL document CHEMBL4400506, “8-Hydroxy-2-(1H-1,2,3-triazol-1-yl)-1,4-naphtoquinone derivatives inhibited P2X7 Receptor-Induced dye uptake into murine Macrophages” (Bioorg Med Chem, 2019).
Active and inactive are the calls of the source. The rule behind the calls is not given here.

What was measured:
Peritoneal macrophage = assay: Cytotoxicity against Swiss Webster mouse peritoneal macrophages assessed as plasma membrane disruption at 100 uM measured after 24 hrs by dextran rhodamine dye based fluorescence assay; format: cell-based
[1] = target: T1, P2X purinoceptor 7 (Mus musculus) (UniProt Q9Z1M0); assay: Antagonist activity at P2X7R in Swiss Webster mouse peritoneal macrophages assessed as inhibition of propidium iodide uptake preincubated for 10 mins propidium iodide addition measured after 5 mins by fluorescence microscopic analysis
T1 sequence (whole entry): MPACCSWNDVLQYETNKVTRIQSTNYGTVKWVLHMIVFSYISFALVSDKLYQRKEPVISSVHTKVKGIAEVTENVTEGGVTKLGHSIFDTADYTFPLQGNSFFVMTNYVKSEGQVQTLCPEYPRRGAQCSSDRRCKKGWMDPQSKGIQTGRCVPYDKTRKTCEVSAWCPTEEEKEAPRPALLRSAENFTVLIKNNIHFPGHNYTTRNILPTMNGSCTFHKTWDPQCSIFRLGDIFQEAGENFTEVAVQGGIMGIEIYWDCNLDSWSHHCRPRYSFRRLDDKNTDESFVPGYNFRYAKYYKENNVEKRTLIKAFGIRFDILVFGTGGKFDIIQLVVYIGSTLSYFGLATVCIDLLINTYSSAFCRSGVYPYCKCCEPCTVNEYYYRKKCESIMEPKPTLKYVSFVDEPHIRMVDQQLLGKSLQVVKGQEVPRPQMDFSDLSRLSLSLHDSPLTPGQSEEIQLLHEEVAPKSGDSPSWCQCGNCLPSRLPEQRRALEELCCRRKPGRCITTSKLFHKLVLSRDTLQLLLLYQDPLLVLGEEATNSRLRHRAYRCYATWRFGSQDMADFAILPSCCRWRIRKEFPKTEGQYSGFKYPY

[2] = target: T1, P2X purinoceptor 7 (Mus musculus); assay: Antagonist activity at P2X7R in Swiss Webster mouse peritoneal macrophages assessed as inhibition of ATP-induced propidium iodide uptake preincubated for 10 mins followed by ATP induction for 25 mins and subsequent propidium iodide addition for last 5 mins by fluorescence microscopic analysis
P2X purinoceptor 7 = target: T2, P2X purinoceptor 7 (Homo sapiens, UniProt Q99572); assay: Antagonist activity at human P2X7R expressed in HEK293 cells assessed as inhibition of ATP-induced […] uptake preincubated for 5 mins followed by ATP induction and measured after 25 mins by fluorescence assay; format: cell-based
T2 sequence (Q99572 whole entry): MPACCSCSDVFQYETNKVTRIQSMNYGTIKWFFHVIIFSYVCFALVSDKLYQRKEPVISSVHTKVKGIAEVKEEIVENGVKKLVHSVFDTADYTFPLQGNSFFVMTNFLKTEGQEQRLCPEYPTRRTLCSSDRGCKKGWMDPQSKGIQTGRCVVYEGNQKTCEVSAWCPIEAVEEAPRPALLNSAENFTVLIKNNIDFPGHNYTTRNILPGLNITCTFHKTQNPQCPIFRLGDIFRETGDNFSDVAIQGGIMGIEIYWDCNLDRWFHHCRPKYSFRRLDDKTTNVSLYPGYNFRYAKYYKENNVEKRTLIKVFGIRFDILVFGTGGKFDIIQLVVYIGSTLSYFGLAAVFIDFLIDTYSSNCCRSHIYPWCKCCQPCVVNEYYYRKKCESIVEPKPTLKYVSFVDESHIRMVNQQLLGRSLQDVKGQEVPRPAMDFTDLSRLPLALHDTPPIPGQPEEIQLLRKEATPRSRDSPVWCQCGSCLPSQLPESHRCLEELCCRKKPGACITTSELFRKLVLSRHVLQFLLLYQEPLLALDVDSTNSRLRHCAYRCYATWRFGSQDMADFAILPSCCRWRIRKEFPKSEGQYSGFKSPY

[3] = Intrinsic clearance in mouse liver microsomes assessed per mg protein at 1 uM measured in presence of NADPH; format: ADME, Microsome; details: read-out: CLH
[4] = Intrinsic clearance in human liver microsomes assessed per mg protein at 1 uM measured in presence of NADPH; format: ADME, Microsome; details: read-out: CLH
[5] = Apparent permeability across apical to basolateral side in human Caco2 cells at 100 uM measured after 60 mins by lucifer yellow staining based fluorescence assay; format: ADME, cell-based; details: Caco-2
[6] = Octanol-PBS distribution co-efficient, log D of the compound at 25 mM at pH 7.4 after 2 hrs by shake flask method; format: physicochemical

| SMILES | Activity (Peritoneal macrophage) | inhibition [1] | inhibition [2] | IC50 (P2X purinoceptor 7) [nM] | microsomal CLint at 1 µM [3] [µL/min/mg] | microsomal CLint at 1 µM [4] [µL/min/mg] | Papp A→B at 1 h, 100 µM [5] [×10⁻⁶ cm/s] | logD at 2 h, 25000 µM [6] |
| --- | --- | --- | --- | --- | --- | --- | --- | --- |
| CC(C)CC(C)(O)c1cn(C2=CC(=O)c3cccc(O)c3C2=O)nn1 (stereo unspecified) | Non-Toxic | inactive | inactive | – | – | – | – | – |
| CCOc1ccc(Nc2ccc(/C(=C3C=C/C(=[N+](/CC)Cc4cccc(S(=O)(=O)[O-])c4)C=C/3C)c3ccc(N(CC)Cc4cccc(S(=O)(=O)[O-])c4)cc3C)cc2)cc1.[Na+] [BRILLIANT BLUE G] | Non-Toxic | inactive | Active | 1370 | – | – | – | – |
| COc1ccc(CC(=O)NC(N/C(=N/C#N)Nc2cccc3ncccc23)C(C)(C)C)cc1OC (stereo unspecified) | Non-Toxic | inactive | Active | 750 | – | – | – | – |
| O=C1C=C(n2cc(CCCCl)nn2)C(=O)c2c(O)cccc21 | Non-Toxic | inactive | Active | 103 | 3.1 | 1.2 | 41.6 | -0.42 |
| O=C1C=C(n2cc(-c3ccccc3)nn2)C(=O)c2c(O)cccc21 | Toxic | inactive | inactive | – | – | – | – | – |
| CCCCc1cn(C2=CC(=O)c3cccc(O)c3C2=O)nn1 | Non-Toxic | inactive | Active | 230 | 40.6 | 46.1 | 71.8 | -1.24 |
| CCCc1cn(C2=CC(=O)c3cccc(O)c3C2=O)nn1 | Toxic | inactive | inactive | – | – | – | – | – |
| CCC(C)(O)c1cn(C2=CC(=O)c3cccc(O)c3C2=O)nn1 (stereo unspecified) | Non-Toxic | inactive | inactive | – | – | – | – | – |
